The record followed here is US7186825B2, “Conformationally restricted polyamine analogs as disease therapies” (Cellgate, Inc., priority 1999, dated 2007).

Common to all, as to type: cell-based
Experiment [1] relates to human lung cancer cells A549. Briefly: MTT assay, survival/growth of cultured human lung cancer cells A549. The conditions noted are these: for EC50: figure legends, survival of cultured A549 cells, MTT, six days after drug treatment, read-out: ED50 (the source's name); for IC50: read-out: concentration needed for 50% growth inhibition (ID50); for IC50 / concentration needed for 50% growth inhibition (ID50): Table 3, A549. As for the experimental part: (§1) As shown in Table 3 and FIGS. 1–32, several novel conformationally restricted polyamine analogs were tested for anti-proliferative properties against cancer cells.
(§2) Human breast cancer cell line MCF7 was grown in Richter's Improved Modified Eagle's Medium supplemented with 10% fetal bovine serum (FBS) and 2.2 g/L sodium bicarbonate. Human brain tumor cell line U251 MG-NCI was grown in Dulbecco's Modified Eagle's Medium supplemented with 10% FBS. Human lung cancer cell line A549 was grown in Ham's F-12K medium (Cellgro, Mediatech, Inc., VA), supplemented with 10% FBS and 2 mM L-glutamine. Human colon cancer cell line HT29 was cultured in McCoy's 5A medium (Gibco, BRL, Gaithersburg, Md.) supplemented with 10% FBS. Human prostate cancer cell lines PC-3, LNCAP and DuPro were grown in RPMI 1640 Medium (Cellgro, Mediatech, Inc., VA) supplemented with 10% FBS. Another human prostate cancer cell line DU145 was grown in Dulbecco's Modified Eagle's Medium (Gibco, BRL, Gaithersburg, Md.) supplemented with 5% FBS. The A549, MCF7, PC3, LNCAP and DuPro cell lines were cultured in 100 units/mL penicillin and 100 μg/mL streptomycin. HT29 and U251MG cell lines were grown in 50 μg/mL gentamycin (Gibco, BRL, Gaithersburg, Md.). DU145 cell line was maintained in 1% antibitic-antimycotic solution (Sigma, St. Louis, Mo.). The cell cultures were maintained at 37° C. in 5% CO2/95% humidified air. DuPro cells were obtained from M. Eileen Dolan, University of Chicago. All other cells are available from the American Type Culture Collection, Rockville, Md.
(§3) A conventional MTT assay was used to evaluate percent cell survival. Exponentially growing monolayer cells were plated in 96-well plates at a density of 500 cells per well and allowed to grow for 24 hours. Serial dilutions of the drugs were added to the wells. Six days after drug treatment, 25 μl of MTT solution (5 mg/ml) was added to each well and incubated for 4 hours at 37° C. Then 100 μl of lysis buffer (20% sodium dodecyl sulfate, 50% DMF, and 0.8% acetic acid, pH 4.7) was added to each well and incubated for an additional 22 hours. A microplate reader (“EMAX”-brand, Molecular Devices, Sunnyvale, Calif.) set at 570 nm was used to determine the optical density of the cultures. Results are expressed as a ratio of the optical density in drug-treated wells to the optical density in wells treated with vehicle only.

In experiment [2] the test system is human brain tumor cells U251 MG NCI. Briefly: MTT assay, survival/growth of cultured human brain tumor cells U251 MG NCI. The conditions noted are these: for EC50: figure legends, survival of cultured U251 MG NCI cells, MTT, six days after drug treatment, read-out: ED50 (the source's name); for IC50: Table 3, U251MG. How it is done: as §2, §3
(Tetrazolium assays rely on reduction of a dye to a coloured formazan, in cell work by metabolically active cells.)

The subject of experiment [3] is human prostate cancer cells DUPRO. Briefly: MTT assay, survival/growth of cultured human prostate cancer cells DUPRO. To be noted: for EC50: figure legends, survival of cultured DUPRO cells, MTT, six days after drug treatment, read-out: ED50 (the source's name); for IC50: read-out: concentration needed for 50% growth inhibition (ID50), Table 3, DUPRO. How it is done: as §2, §3
(§4) Using the protocols of Example 2, the porphyrin-polyamine conjugates were tested for activity in vitro in various cancer cell lines.

Experiment [4] has as its system human prostate cancer cells DU145. The experiment is described as follows: MTT assay, survival/growth of cultured human prostate cancer cells DU145. To be noted: for EC50: figure legends, survival of cultured DU145 cells, MTT, six days after drug treatment, read-out: ED50 (the source's name); for IC50: read-out: concentration needed for 50% growth inhibition (ID50), Table 3, DU-145. How it is done:
as §2, §3, §4

Experiment [5] deals with human breast cancer cells MCF7. The experiment is described as follows: MTT assay, survival/growth of cultured human breast cancer cells MCF7. To be noted: for EC50: figure legends, survival of cultured MCF7 cells, MTT, six days after drug treatment, read-out: ED50 (the source's name); for IC50: read-out: concentration needed for 50% growth inhibition (ID50), Table 3, MCF7. How it is done: as §1, §2, §3

The test system of experiment [6] is human prostate cancer cells PC3. Briefly: MTT assay, survival/growth of cultured human prostate cancer cells PC3. To be noted: for EC50: figure legends, survival of cultured PC3 cells, MTT, six days after drug treatment, read-out: ED50 (the source's name); for IC50: read-out: concentration needed for 50% growth inhibition (ID50), Table 3, PC-3. How it is done: as §2, §3, §4

In experiment [7] the test system is human colon cancer cells HT29. The experiment is described as follows: MTT assay, survival/growth of cultured human colon cancer cells HT29. To be noted: for EC50: figure legends, survival of cultured HT29 cells, MTT, six days after drug treatment, read-out: ED50 (the source's name); for IC50: read-out: concentration needed for 50% growth inhibition (ID50), Table 3, HT-29. As for the experimental part:
as §1, §2, §3

Experiment [8] concerns human prostate cancer cells LNCAP. The experiment is described as follows: MTT assay, survival/growth of cultured human prostate cancer cells LNCAP. To be noted: figure legends, survival of cultured LNCAP cells, six days after drug treatment, read-out: ED50 (the source's name). As for the experimental part: as §2, §3, §4
The mark [9] stands for this setting: Homo sapiens, U-251, read-out: concentration needed for 50% growth inhibition (ID50).
Setting [10] is: read-out: concentration needed for 50% growth inhibition (ID50).

Each structure is given as a SMILES string. Read-outs that look alike come from different tables or passages of the source.

For `CCNCCCNCCCNCCCNCC` [BE-333, N1,N11-diethylnorspermine, reference compound], the EC50 is 300 nM in experiment [1]; 230 nM in experiment [2]; 900 nM in experiment [3]; 120 nM in experiment [4]; 3700 nM in experiment [5]; 340 nM in experiment [6]. Also, in experiment [7], the EC50 came to 300 nM.
In the case of `CCNCCCCNCCCCNCCCCNCC` [BE-444, N1,N14-bis(ethyl) homospermine, reference compound], the EC50 stood at 150 nM in experiment [1]; 100 nM in experiment [8]; 30 nM in experiment [4]; 700 nM in experiment [6]; 930 nM in experiment [7].
Consider `CCNCCCNCC#CCNCCCNCC` [SL-11091], for which the EC50 in experiment [1] (Homo sapiens, 144 h) is over 31200 nM; in experiment [2] (Homo sapiens, U-251, 144 h), over 31200 nM; in experiment [4] (Homo sapiens, DU-145, 144 h), 4330 nM; in experiment [5] (Homo sapiens, 144 h), over 31200 nM; in experiment [6] (Homo sapiens, PC-3, 144 h) it was over 31200 nM; in experiment [7] (Homo sapiens, HT-29, 144 h), over 31200 nM. Further, the IC50 was over 31200 nM in experiment [1] (Homo sapiens); over 31200 nM in experiment [2] (setting [9]); 1330 nM in experiment [4] (Homo sapiens); over 31200 nM in experiment [5] (Homo sapiens); over 31200 nM in experiment [6] (Homo sapiens); over 31200 nM in experiment [7] (Homo sapiens).
For `CNCCCNCC#CCNCCCNC` [SL-11092], the IC50 is over 31200 nM in experiment [1] (Homo sapiens); over 31200 nM in experiment [2] (setting [9]); 1700 nM in experiment [4] (Homo sapiens); over 31200 nM in experiment [5] (Homo sapiens); over 31200 nM in experiment [6] (Homo sapiens); over 31200 nM in experiment [7] (Homo sapiens).
`CCNCCCNCc1ccccc1CNCCCNCC` [SL-11094]: the “concentration needed for 50% growth inhibition (ID50)” value in experiment [1] is over 31250 nM. In addition, the IC50 is over 31200 nM in experiment [2] (setting [10]); 12600 nM in experiment [4]; over 31200 nM in experiment [5]; over 31200 nM in experiment [6]; 28800 nM in experiment [7]. Moreover, the EC50 in experiment [4] was found to be 15400 nM.
In the case of `CCNCCCCNC/C=C/CNCCCCNCC` [SL-11101], the EC50 in experiment [1] (Homo sapiens, 144 h) is 2200 nM; in experiment [2] (Homo sapiens, U-251, 144 h), 1700 nM; in experiment [3] (Homo sapiens, 144 h) it was 850 nM; in experiment [4] (Homo sapiens, DU-145, 144 h), 220 nM; in experiment [5] (Homo sapiens, 144 h), over 31200 nM; in experiment [6] (Homo sapiens, PC-3, 144 h), 7700 nM. Further, the IC50 in experiment [1] (Homo sapiens) is 150 nM; in experiment [2] (setting [9]) it was 1700 nM; in experiment [3] (Homo sapiens) it was 850 nM; in experiment [4] (Homo sapiens), 218 nM; in experiment [5] (Homo sapiens), over 31200 nM; in experiment [6] (Homo sapiens), 7700 nM. Further, the IC50 in experiment [7] (Homo sapiens) is 5200 nM.
For `CCNCCCCNC/C=C\CNCCCCNCC` [SL-11102], in experiment [1], the “concentration needed for 50% growth inhibition (ID50)” value amounted to 12400 nM. In addition, the EC50 was 150 nM in experiment [1]; 150 nM in experiment [2]; 150 nM in experiment [3]; 30 nM in experiment [4]; over 31200 nM in experiment [6]. The IC50 in experiment [2] (setting [10]) is 150 nM; in experiment [3], 150 nM; in experiment [4] it was 27 nM; in experiment [5], over 31200 nM; in experiment [6], over 31200 nM; in experiment [7], 730 nM.
On to `CCNCCCCNCC#CCNCCCCNCC` [SL-11103], for which the EC50 in experiment [1] (Homo sapiens, 144 h) was 12400 nM; in experiment [2] (Homo sapiens, U-251, 144 h), 9500 nM; in experiment [4] (Homo sapiens, DU-145, 144 h) it was 2800 nM; in experiment [5] (Homo sapiens, 144 h), over 31200 nM; in experiment [6] (Homo sapiens, PC-3, 144 h), over 31200 nM. Moreover, the IC50 is over 31200 nM in experiment [1] (Homo sapiens); 9500 nM in experiment [2] (setting [9]); 2800 nM in experiment [4] (Homo sapiens); over 31200 nM in experiment [5] (Homo sapiens); over 31200 nM in experiment [6] (Homo sapiens); 29400 nM in experiment [7] (Homo sapiens).
As for `CCNCCCCNCc1ccccc1CNCCCCNCC` [SL-11104], in experiment [1], the “concentration needed for 50% growth inhibition (ID50)” value turned out to be 430 nM. In addition, the EC50 was 14700 nM in experiment [2] and 9400 nM in experiment [4]. Besides, the IC50 was 14700 nM in experiment [2] (setting [10]); 9400 nM in experiment [4]; over 31200 nM in experiment [5]; over 31200 nM in experiment [6]; 25800 nM in experiment [7].
Regarding `CCNC/C=C\CNCCCCNC/C=C\CNCC` [SL-11114], the EC50 in experiment [1] (Homo sapiens, 144 h) is over 31200 nM; in experiment [8] (Homo sapiens, 144 h) it was 3000 nM; in experiment [3] (Homo sapiens, 144 h) it was 640 nM; in experiment [4] (Homo sapiens, DU-145, 144 h) it was 130 nM; in experiment [6] (Homo sapiens, PC-3, 144 h), 700 nM. In addition, the IC50 is over 31200 nM in experiment [1] (Homo sapiens); 640 nM in experiment [3] (Homo sapiens); 135 nM in experiment [4] (Homo sapiens); 700 nM in experiment [6] (Homo sapiens); 3600 nM in experiment [7] (Homo sapiens).
For `CCNC/C=C\CNCCCCNCCCCNCC` [SL-11118], the EC50 in experiment [1] (Homo sapiens, 144 h) stood at 214 nM; in experiment [8] (Homo sapiens, 144 h), 210 nM; in experiment [3] (Homo sapiens, 144 h), 250 nM; in experiment [4] (Homo sapiens, DU-145, 144 h), 50 nM; in experiment [6] (Homo sapiens, PC-3, 144 h), 1650 nM. Further, the IC50 in experiment [1] (Homo sapiens) came to 210 nM; in experiment [3] (Homo sapiens) it was 250 nM; in experiment [4] (Homo sapiens), 50 nM; in experiment [6] (Homo sapiens) it was 1650 nM; in experiment [7] (Homo sapiens), 980 nM.
`CCNC/C=C\CNCCCCNCCCCNC/C=C\CNCC` [SL-11128]: the EC50 stood at 300 nM in experiment [8] (Homo sapiens, 144 h); 1280 nM in experiment [3] (Homo sapiens, 144 h); 140 nM in experiment [4] (Homo sapiens, DU-145, 144 h); 500 nM in experiment [6] (Homo sapiens, PC-3, 144 h). In addition, the IC50 was 1250 nM in experiment [3] (Homo sapiens), 140 nM in experiment [4] (Homo sapiens), 500 nM in experiment [6] (Homo sapiens) and 1350 nM in experiment [7] (Homo sapiens).
On to `CCNCCCCNCCCCNCCCCNCCCCNCCO` [SL-11141], for which the EC50 is 70 nM in experiment [8] (Homo sapiens, 144 h); 710 nM in experiment [3] (Homo sapiens, 144 h); 130 nM in experiment [4] (Homo sapiens, DU-145, 144 h); over 31200 nM in experiment [6] (Homo sapiens, PC-3, 144 h).
Turning to `CCNCCCCNCCCCNCCCCNCCCCNC/C=C\CNCCCCNCCCCNCCCCNCCCCNCC` [SL-11150], the EC50 in experiment [8] (Homo sapiens, 144 h) was 230 nM; in experiment [3] (Homo sapiens, 144 h) it was 480 nM; in experiment [4] (Homo sapiens, DU-145, 144 h), 110 nM.
